Counter-ions that a name gives are not always drawn.
How the values were obtained:
[1] = test system: Male mice of the Std:ddY Strain; test: Analgesic activity by the hot plate method; assay type: in vivo; conditions: 52° C. plate
Method: Measurement of Analgesic Activity by the Hot Plate Method
Male mice of the Std:ddY Strain (20-25 g), which were fasted for one night before the initiation of the experiment, were used. Test compound hardly soluble in water was used in 3% suspension in gum arabic. Test compound taking a salt form was used in aqueous solution. Mice were placed on a cyrindric hot plate (diameter: 22 cm, height: 11 cm) made of copper which was fixed in a water bath adjusted to 52° C. so that each animal's four paws came into contact with the plate and the time taken to show the nociceptive response (jumping and licking) as an index of pain was measured. Mice showing response times above 25 seconds were excluded from the experiment. The analgesic activity of the compound was measured at 1, 3 and 5 hours after test compound was administered p.o. The results are shown in Table 4.

[2] = test system: Male mice of the Std:ddY Strain; test: in vivo; conditions: p.o., mortality during 72 hours, Litchfield-Wilcoxon, 4320 min
Text: (§1) EXPERIMENT EXAMPLE 6 (ACUTE TOXICITY)
(§2) Male mice of the Std:ddY Strain (20-25 g), which were fasted for one night before the initiation of the experiment, were used. Test compound hardly soluble in water was used in 3% suspension in gum arabic. Test compound taking a salt form was used in aqueous solution.

[3] = test system: Male mice of the Std:ddY Strain; test: Analgesic activity by the phenylquinone-induced writhing method; assay type: in vivo; conditions: phenylquinone i.p., counted for 15 min, n = 8~10
Method: Measurement of Analgesic Activity by the Phenylquinone-Induced Writhing Method
Male mice of the Std:ddY Strain (20-25 g), which were fasted for one night before the initiation of the experiment, were used. Test compound hardly soluble in water was used in 3% suspension in gum arabic. Test compound taking a salt form was used in aqueous solution. 0.03% phenylquinone in 0.5% ethanol solution was injected i.p. (10 ml/kg) at 2 hours and 55 minutes after the compound was administered p.o. After 5 minutes, the number of writhings was counted for a period of 15 minutes.

[4] = test system: Male mice of the Std:ddY Strain; test: Analgesic activity by the tail-pressure method; assay type: in vivo
Method: Measurement of Analgesic Activity by the Tail-Pressure Method
Male mice of the Std:ddY Strain (20-25 g), which were fasted for one night before the initiation of the experiment, were used. Test compound hardly soluble in water was used in 3% suspension in gum arabic. Test compound taking a salt form was used in aqueous solution. Experiments were made with a tail-pressure apparatus. Before the administration of test compounds, the pain threshold was measured twice at intervals of 30 minutes and those mice indicating a pain threshold of 30 to 80 mmHg were selected and used. The pain threshold of each mouse was measured at 1, 3 and 5 hours after test compounds were administered p.o. The results were described as a percentage of the pain threshold after the treatment with test compound relative to that before the treatment with test compound.

[5] = test system: Male mice of the Std:ddY Strain; test: Analgesic activity by the acetic acid-induced writhing method; assay type: in vivo; conditions: acetic acid i.p., counted for 10 min, n = 10
Method: Measurement of Analgesic Activity by the Acetic Acid-Induced Writhing Method
Male mice of the Std:ddY Strain (20-25 g), which were fasted for one night before the initiation of the experiment, were used. Test compound hardly soluble in water was used in 3% suspension in gum arabic. Test compound taking a salt form was used in aqueous solution. 0.7% acetic acid in 0.9% physiological saline solution was injected i.p. (10 ml/kg) at 2 hours and 50 minutes after the test compound was administered p.o. After 10 minutes, the number of writhing movements was counted for a period of 10 minutes.

[6] = test system: Male rats of the Wistar strain; test: Antiinflammatory activity by the carrageenin-induced hind paw edema; assay type: in vivo; conditions: 100 mg/kg p.o.
Method: Measurement of Antiinflammatory Activity by the Carrageenin-Induced Hind Paw Edema
Male rats of the Wistar strain (5 weeks old, 120-130 g), which were fasted for one night before the initiation of the experiment, were used. One hour after the oral administration of test compound, λ-carrageenin (1%) was injected s.c. under the plantar surface of the right hind paw. Thereafter, at one hour intervals for 6 hours, the volume of the paw was measured using an apparatus therefor. The results were described as a swelling rate (%) calculated using the following equation:
(R-L)×100/L=swelling rate (%)
R: the volume of the right hind paw
L: the volume of the left hind paw

in vivo = test: in vivo; set-up: species or system mice (Std:ddY); conditions: mouse, in vivo, po; mortality during 72 hours; Litchfield-Wilcoxon
Text: as §1, §2

Property and solubility = assay type: physicochemical

| Compound | Pain threshold (s, mean ± S.E.) ([1]; 100 mg/kg p.o., 1 h) [s] | Pain threshold (s, mean ± S.E.) ([1]; 100 mg/kg p.o., 3 h) [s] | Pain threshold (s, mean ± S.E.) ([1]; 100 mg/kg p.o., 5 h) [s] | Pain threshold (s, mean ± S.E.) ([1]; 300 mg/kg p.o., 1 h) [s] | Pain threshold (s, mean ± S.E.) ([1]; 300 mg/kg p.o., 3 h) [s] | Pain threshold (s, mean ± S.E.) ([1]; 300 mg/kg p.o., 5 h) [s] | The number of writhings, mean ± S.E. ([3]; 3 mg/kg p.o.) | The number of writhings, mean ± S.E. ([3]; 10 mg/kg p.o.) | The number of writhings, mean ± S.E. ([3]; 30 mg/kg p.o.) | Pain threshold (%, mean ± S.E.), posttreatment relative to pretreatment ([4]; 100 mg/kg p.o., 1 h) [%] | Pain threshold (%, mean ± S.E.), posttreatment relative to pretreatment ([4]; 100 mg/kg p.o., 3 h) [%] | Pain threshold (%, mean ± S.E.), posttreatment relative to pretreatment ([4]; 100 mg/kg p.o., 5 h) [%] | Pain threshold (%, mean ± S.E.), posttreatment relative to pretreatment ([4]; 300 mg/kg p.o., 1 h) [%] | Pain threshold (%, mean ± S.E.), posttreatment relative to pretreatment ([4]; 300 mg/kg p.o., 3 h) [%] | Pain threshold (%, mean ± S.E.), posttreatment relative to pretreatment ([4]; 300 mg/kg p.o., 5 h) [%] | The number of writhings, mean ± S.E. ([5]; 3 mg/kg p.o.) | The number of writhings, mean ± S.E. ([5]; 10 mg/kg p.o.) | The number of writhings, mean ± S.E. ([5]; 30 mg/kg p.o.) | Swelling rate (%, mean ± S.E.) ([6]; 1 h after carrageenin) [%] | Swelling rate (%, mean ± S.E.) ([6]; 2 h after carrageenin) [%] | other results |
| --- | --- | --- | --- | --- | --- | --- | --- | --- | --- | --- | --- | --- | --- | --- | --- | --- | --- | --- | --- | --- | --- |
| CCN1C[C@]2(COC)[C@H](O)C[C@H](OC)[C@]34C1[C@H]([C@H](OC)[C@H]23)[C@]1(O)[C@H]2[C@@H](OC(=O)c3ccc(Cl)cc3)[C@](O)(C[C@H]24)[C@@H](OC)[C@@H]1O [14-O-p-chlorobenzoylaconine tartrate] | 17.3 ± 2.2 | 26.7 ± 3.2 | 24.7 ± 2.1 | 18.7 ± 1.7 | 42.5 ± 11.0 | 25.7 ± 2.7 | 21.1 ± 2.4 | 18.3 ± 2.2 | 15.7 ± 2.7 | 102.6 ± 3.4 | 141.1 ± 8.3 | 128.0 ± 4.9 | 147.0 ± 7.8 | 240.4 ± 25.0 | 202.9 ± 19.7 | 17.8 ± 2.5 | 15.5 ± 2.3 | 10.7 ± 2.1 | 16.0 ± 3.6 | 31.5 ± 3.1 | LD50 [2]: > 1000 mg/kg; Swelling rate (%, mean ± S.E.) ([6]; 3 h after carrageenin): 47.3 ± 7.4%; Swelling rate (%, mean ± S.E.) ([6]; 4 h after carrageenin): 56.1 ± 2.0%; Swelling rate (%, mean ± S.E.) ([6]; 5 h after carrageenin): 49.6 ± 5.0%; Swelling rate (%, mean ± S.E.) ([6]; 6 h after carrageenin): 57.6 ± 9.0% |
| CCN1CC2(COC)C(O)CC(OC)C34C5CC6(O)C(OC)C(O)C(C5C6OC(=O)c5ccccc5)C(C(OC)C23)C14 (stereo not drawn) [8-deoxy-14-O-benzoylaconine, reference compound] | 17.3 ± 1.7 | 17.9 ± 2.1 | 18.9 ± 1.7 | 18.6 ± 1.6 | 24.0 ± 2.3 | 19.6 ± 2.0 | 27.1 ± 2.7 | 25.0 ± 3.0 | 24.0 ± 2.3 | 101.8 ± 14.1 | 100.2 ± 7.2 | 105.6 ± 9.2 | 115.6 ± 17.0 | 116.2 ± 12.0 | 110.2 ± 7.0 | 24.1 ± 2.7 | 21.9 ± 2.6 | 17.8 ± 2.5 | 24.8 ± 9.2 | 36.3 ± 6.3 | LD50 at 72 h (in vivo): > 100 mg/kg; Swelling rate (%, mean ± S.E.) ([6]; 3 h after carrageenin): 59.8 ± 6.3%; Swelling rate (%, mean ± S.E.) ([6]; 4 h after carrageenin): 63.5 ± 1.0%; Swelling rate (%, mean ± S.E.) ([6]; 5 h after carrageenin): 70.3 ± 3.9%; Swelling rate (%, mean ± S.E.) ([6]; 6 h after carrageenin): 72.2 ± 6.0% |
| CCN1C[C@]2(COC)[C@H](O)C[C@H](OC)[C@]34C1[C@H]([C@H](OC)[C@H]23)[C@]1(O)[C@H]2[C@@H](OC(=O)c3ccc(Cl)cc3)[C@](O)(C[C@H]24)[C@@H](OC)[C@@H]1O [14-O-p-chlorobenzoylaconine] | 21.6 ± 2.2 | 21.6 ± 2.0 | 27.6 ± 0.9 | 22.2 ± 1.5 | 38.4 ± 3.3 | 24.0 ± 1.6 | 20.1 ± 3.6 | 17.3 ± 2.8 | 15.9 ± 3.5 | 100.4 ± 2.5 | 129.6 ± 10.3 | 108.0 ± 6.0 | 120.0 ± 7.3 | 182.0 ± 21.7 | 166.0 ± 20.1 | 19.8 ± 2.5 | 17.3 ± 2.4 | 12.9 ± 3.7 | 22.4 ± 8.0 | 28.0 ± 2.4 | LD50 ([2]; listed as compound of the formula (I)): ≥ 1,000 mg/kg; LD50 at 72 h (in vivo): > 1000 mg/kg; Solubility in organic solvents (Property and solubility; ether, chloroform, benzene, methanol, ethanol, acetone, ethyl acetate, pyridine and dimethyl sulfoxide): Soluble; Solubility in hexane and water (Property and solubility; hexane and water): Insoluble; Swelling rate (%, mean ± S.E.) ([6]; 3 h after carrageenin): 51.0 ± 2.8%; Swelling rate (%, mean ± S.E.) ([6]; 4 h after carrageenin): 58.6 ± 2.4%; Swelling rate (%, mean ± S.E.) ([6]; 5 h after carrageenin): 66.8 ± 3.7%; Swelling rate (%, mean ± S.E.) ([6]; 6 h after carrageenin): 72.9 ± 5.3% |

Source: patent US5330983A, “14-O-p-chlorobenzoylaconine and analgesic/anti-inflammatory agent containing the same” (priority 1991, dated 1994)
